The nature of series [1]: Solubility of the compound in aqueous buffer. It is filed as physicochemical.
In series [2] the test system is Hepacivirus hominis. Put plainly: Inhibition of recombinant HCV NS3/4A protease at 100 uM pre-incubated for 10 mins followed by 5-FAM/QXL520 substrate addition and measured after 60 mins by FRET analysis relative to control.
The test system of series [3] is Hepacivirus hominis. The experiment in a line: Inhibition of recombinant HCV NS3/4A protease V170A mutant assessed as residual enzyme activity at 100 uM pre-incubated for 10 mins followed by 5-FAM/QXL520 substrate addition and measured after 60 mins by FRET analysis relative to control.
Series [4] relates to Hepacivirus hominis. Put plainly: Inhibition of recombinant wild type HCV NS3/4A protease assessed as residual enzyme activity at 100 uM pre-incubated for 10 mins followed by 5-FAM/QXL520 substrate addition and measured after 60 mins by FRET analysis relative to control.
A short description of series [5]: Inhibition of recombinant HCV NS3/4A protease pre-incubated for 10 mins followed by 5-FAM/QXL520 substrate addition and measured after 60 mins by FRET analysis relative to control. The arrangement: species or system Hepacivirus hominis.
Series [6] has as its system Hepatitis C virus serine protease, NS3/NS4A (Hepatitis C virus), D2K2A8+A3EZI9 [D168A]. The experiment in a line: Inhibition of recombinant HCV NS3/4A protease D168A mutant assessed as residual enzyme activity at 100 uM pre-incubated for 10 mins followed by 5-FAM/QXL520 substrate addition and measured after 60 mins by FRET analysis relative to control. The note with it: Hepacivirus hominis.

Turning to `CC(C)(C)OC(=O)N[C@@H](Cc1c[nH]c2ccccc12)C(=O)N[C@H]1CO[C@H]2[C@@H]1OC[C@@H]2OCc1ccccc1`, the solubility result in series [1] is on record as “Insoluble”.
Take `O=C(N[C@H]1CO[C@H]2[C@@H]1OC[C@@H]2OCc1ccccc1)/C(=C/c1cc2ccccc2s1)NC(=O)c1ccccc1`: the inhibition (commonly the relative decrease from the control value, in per cent) in the series with Hepacivirus hominis [2] is 30.3%. Moreover, the solubility result in series [1] is given as “Soluble”.
Consider `CC(C)(C)OC(=O)N1CCC[C@H]1C(=O)N[C@H]1CO[C@H]2[C@@H]1OC[C@@H]2OCc1ccccc1`, for which the solubility result in series [1] is listed as “Insoluble”.
Take `COc1ccc(CO[C@H]2CO[C@H]3[C@@H]2OC[C@@H]3NC(=O)/C(=C/c2cccs2)NC(=O)c2ccccc2)cc1`: the solubility result in series [1] is on record as “Insoluble”.
On the same count and under the same terms, as for `CC(C)(C)OC(=O)N[C@@H](CCCN/C(=N\C(=O)OCc1ccccc1)NC(=O)OCc1ccccc1)C(=O)N[C@H]1CO[C@H]2[C@@H]1OC[C@@H]2OCc1ccccc1`, the entry is “Insoluble”.
For the compound `O=C(N[C@@H]1CO[C@H]2[C@@H]1OC[C@H]2OCc1ccccc1)/C(=C/c1cccs1)NC(=O)c1ccccc1`, the inhibition with Hepacivirus hominis [2] came out at 45%. For the same compound, the solubility result in series [1] is on record as “Insoluble”.
As to `C[C@@H](O)[C@H](NC(=O)OC(C)(C)C)C(=O)N[C@H]1CO[C@H]2[C@@H]1OC[C@@H]2OCc1ccccc1`, in series [1], the solubility entry is reported as “Insoluble”.
For `O=C(N[C@H]1CO[C@H]2[C@@H]1OC[C@@H]2OCc1ccccc1)/C(=C/c1ccco1)NC(=O)c1ccccc1`, the values for the Activity (with Hepacivirus hominis [3]; in the series on Hepacivirus hominis [4]; in series [6]) were 6.7%, 18.2% and 36.7%, respectively. Further, in series [5], the IC50 (in general, the concentration needed to halve the response being measured) was 36 µM. Moreover, the inhibition with Hepacivirus hominis [2] worked out at 81.8%. In addition, the solubility result in series [1] is reported as “Soluble”.

The values are drawn from ChEMBL document CHEMBL4052779, “Isosorbide-based peptidomimetics as inhibitors of hepatitis C virus serine protease” (Bioorg Med Chem Lett, 2017).
